The target of one assay is T1, hTLR8 (Homo sapiens, UniProt Q9NR97).
T1 construct: host or cells: HEK-Blue hTLR8 (HEK293-derived reporter line)
T1 sequence (Q9NR97 27-1041): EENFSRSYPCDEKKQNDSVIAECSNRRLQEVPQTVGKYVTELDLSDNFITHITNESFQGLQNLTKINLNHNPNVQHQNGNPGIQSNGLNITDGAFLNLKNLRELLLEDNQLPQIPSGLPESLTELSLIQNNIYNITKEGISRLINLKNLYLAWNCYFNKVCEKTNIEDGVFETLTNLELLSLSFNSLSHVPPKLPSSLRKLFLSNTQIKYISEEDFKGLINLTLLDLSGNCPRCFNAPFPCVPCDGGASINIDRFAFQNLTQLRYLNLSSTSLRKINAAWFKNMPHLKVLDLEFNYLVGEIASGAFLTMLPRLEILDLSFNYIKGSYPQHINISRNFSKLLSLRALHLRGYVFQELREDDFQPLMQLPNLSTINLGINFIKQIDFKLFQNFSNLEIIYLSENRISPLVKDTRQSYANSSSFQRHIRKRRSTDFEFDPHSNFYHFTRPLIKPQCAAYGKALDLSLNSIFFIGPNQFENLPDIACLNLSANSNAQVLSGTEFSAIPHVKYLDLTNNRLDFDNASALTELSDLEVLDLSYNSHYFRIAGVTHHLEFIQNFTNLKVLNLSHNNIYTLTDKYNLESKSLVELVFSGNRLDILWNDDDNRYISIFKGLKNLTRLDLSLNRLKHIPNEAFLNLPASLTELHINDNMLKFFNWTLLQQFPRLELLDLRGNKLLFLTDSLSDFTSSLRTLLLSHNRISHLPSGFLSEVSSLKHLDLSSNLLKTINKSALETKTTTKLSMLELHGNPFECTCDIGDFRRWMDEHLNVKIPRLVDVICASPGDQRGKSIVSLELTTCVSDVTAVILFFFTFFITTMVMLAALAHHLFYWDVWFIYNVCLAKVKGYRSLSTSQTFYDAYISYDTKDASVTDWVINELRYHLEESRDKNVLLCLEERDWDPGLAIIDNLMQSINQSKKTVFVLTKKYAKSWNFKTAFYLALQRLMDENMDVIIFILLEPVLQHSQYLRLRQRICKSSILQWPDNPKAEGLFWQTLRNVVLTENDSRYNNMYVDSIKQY
Put plainly: Activation activity test of hTLR8 (HEK-Blue hTLR8 cells, QUANTI-Blue OD650). Particulars: HEK-Blue hTLR8 cells, 24 hours incubation; read-out: TLR8 (EC50). It is filed as cell-based. The method, then:
(§1) Effect Example 1: Activation Activity Test of hTLR7 and hTLR8
(§2) Cell lines: HEK-Blue™ hTLR7 and HEK-Blue™ hTLR8 (InvivoGen Co.)
(§3) Primary reagents: QUANTI-Blue™ (InvivoGen) and ATPlite 1 Step (PerkinElmer)
(§4) Primary instruments: Automatic Liquid Handling Workstation (Labcyte, Model: Echo), Cell Counter (Countstar, IC1000) and Multifunctional Enzyme Marker (Molecular Device, Flexstation III).
(§5) 2.1 The tested compounds were formulated into a 60 mM concentrated stock solution in DMSO and stored in a nitrogen cabinet.
(§6) 2.3 The T150 cultured cells were taken out from the CO2 incubator and the cell culture supernatant was discarded. The cells were washed with PBS once, followed by addition of about 10 mL of the culture solution. The cells were dissociated by patting the cell culture flask, and gently blown to even by a pipette.
(§7) The cells were counted, and the cell suspension was adjusted to 200,000 cells/mL by the culture solution. Thereafter, 200 μL of diluted cells was added to each well in a 96-well plate containing the compound (40,000 cells/well).
(§8) 2.4 The compounds and cells were incubated in a 5% CO2 incubator at 37° C. for 24 hours.
(§9) 2.5 Compound activity assay: 20 μl of the cell supernatant of each well after induction was added to a cell culture plate containing 180 μL of reagent QUANTI-Blue™, and incubated at 37° C. for 1.5 hours. Thereafter, the optical density absorption (OD650) of each well at 650 nm was measured using a Multifunctional Enzyme Marker: Flexstation III.
(§10) 2.6 Compound Activity: OD650 values were analyzed using GraphPad Prism software and the dose-response curves for the compound were fitted to calculate the EC50 values of the compound.

The next assay addresses T2, hTLR7 (Homo sapiens, UniProt Q9NYK1).
T2 construct: host or cells: HEK-Blue hTLR7 (HEK293-derived reporter line)
T2 sequence (Q9NYK1 27-1049): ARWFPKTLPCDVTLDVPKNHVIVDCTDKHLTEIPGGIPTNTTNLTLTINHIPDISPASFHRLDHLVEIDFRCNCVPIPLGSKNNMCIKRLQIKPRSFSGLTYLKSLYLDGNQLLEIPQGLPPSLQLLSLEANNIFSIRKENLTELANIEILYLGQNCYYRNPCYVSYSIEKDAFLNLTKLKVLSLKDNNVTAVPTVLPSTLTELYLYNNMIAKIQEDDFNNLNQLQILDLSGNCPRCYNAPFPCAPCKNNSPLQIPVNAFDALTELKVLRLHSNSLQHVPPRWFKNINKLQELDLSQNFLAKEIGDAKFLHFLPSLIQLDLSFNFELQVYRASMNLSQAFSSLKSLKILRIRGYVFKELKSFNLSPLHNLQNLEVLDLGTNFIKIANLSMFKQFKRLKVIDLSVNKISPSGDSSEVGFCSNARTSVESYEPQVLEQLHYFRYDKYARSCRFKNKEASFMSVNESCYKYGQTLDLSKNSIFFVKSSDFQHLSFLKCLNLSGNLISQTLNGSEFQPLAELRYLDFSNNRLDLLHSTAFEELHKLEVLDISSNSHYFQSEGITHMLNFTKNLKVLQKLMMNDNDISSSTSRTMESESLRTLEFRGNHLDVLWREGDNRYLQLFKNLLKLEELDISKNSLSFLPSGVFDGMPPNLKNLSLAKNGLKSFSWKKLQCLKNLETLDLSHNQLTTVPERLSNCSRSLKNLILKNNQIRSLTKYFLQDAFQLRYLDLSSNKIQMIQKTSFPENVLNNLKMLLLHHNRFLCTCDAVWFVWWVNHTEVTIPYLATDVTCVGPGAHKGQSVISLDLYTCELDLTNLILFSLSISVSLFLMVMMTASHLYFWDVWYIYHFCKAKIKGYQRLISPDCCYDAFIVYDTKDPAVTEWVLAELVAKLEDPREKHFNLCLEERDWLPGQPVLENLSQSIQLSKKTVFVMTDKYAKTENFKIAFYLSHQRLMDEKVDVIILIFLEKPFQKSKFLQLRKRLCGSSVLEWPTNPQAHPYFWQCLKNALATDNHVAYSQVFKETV
Put plainly: Activation activity test of hTLR7 (HEK-Blue hTLR7 cells, QUANTI-Blue OD650). Particulars: 24 hours incubation, read-out: TLR7 (EC50). It is filed as cell-based. The procedure:
as §1, §2, §3, §4, §5, §6, §7, §8, §9, §10

The source of these data is patent US11084818B2 (HEPO PHARMACEUTICAL CO., LTD., priority 2016, dated 2021).

Take `COCCOc1ccc2[nH]c(=O)n(Cc3ccc(CN4CCCC4)cc3)c2n1` [Example 40, 5-(2-methoxyethoxy)-3-(4-(pyrrolidin-1-ylmethyl)benzyl)-1,3-dihydro-2H-imidazole[4,5-b]pyridin-2-one]: the EC50 on hTLR8 and at hTLR7 was over 100 µM each time.

As for `COCCOc1ncc2[nH]c(=O)n(Cc3ccc([C@H](C)N4CCCC4)cc3)c2n1` [Example 41, (S)-2-(2-methoxyethoxy)-9-(4-(1-(pyrrolidin-1-yl)ethyl)benzyl)-7,9-dihydro-8H-purin-8-one], the 50% effective concentration (EC50) (usually the midpoint of the concentration-response curve) at hTLR8 is over 100 µM; at hTLR7 it was 0.001 to 1 µM.

`COCCOc1ncc2[nH]c(=O)n(Cc3ccc([C@@H](C)N4CCCC4)cc3)c2n1` [Example 42, (R)-2-(2-methoxyethoxy)-9-(4-(1-(pyrrolidin-1-yl)ethyl)benzyl)-7,9-dihydro-8H-purin-8-one]: the EC50 on hTLR8 is over 100 µM; on hTLR7, 0.001 to 1 µM.

Consider `O=c1[nH]c2cnc(OCCOC(F)(F)F)nc2n1Cc1ccc(CN2CCCC2)cc1` [Example 43], for which the 50% effective concentration (EC50) is over 100 µM at hTLR8 and 0.001 to 1 µM on hTLR7.

Regarding `COCCCOc1ncc2[nH]c(=O)n(Cc3ccc(CN4CCCC4)cc3)c2n1` [Example 45, 9-(4-(pyrrolidin-1-ylmethyl)benzyl)-2-(3-methoxypropoxy)-7,9-dihydro-8H-purin-8-one], the EC50 is over 100 µM at hTLR8 and 0.001 to 1 µM at hTLR7.

`O=c1[nH]c2cnc(OCC3CCCO3)nc2n1Cc1ccc(CN2CCCC2)cc1` (centres unmarked) [Example 46, 9-(4-(pyrrolidin-1-ylmethyl)benzyl)-2-((tetrahydrofuran-2-yl)methoxy)-7,9-dihydro-8H-purin-8-one]: the EC50 at hTLR8 was over 100 µM; on hTLR7 it was 1 to 10 µM.

For the compound `COCCCCOc1ncc2[nH]c(=O)n(Cc3ccc(CN4CCCC4)cc3)c2n1` [Example 47, 9-(4-(pyrrolidin-1-ylmethyl)benzyl)-2-(4-methoxybutoxy)-7,9-dihydro-8H-purin-8-one], the EC50 on hTLR8 was over 100 µM; at hTLR7, 1 to 10 µM.

Turning to `O=c1[nH]c2cnc(OCCOCC(F)(F)F)nc2n1Cc1ccc(CN2CCCC2)cc1` [Example 48, 9-(4-(pyrrolidin-1-ylmethyl)benzyl)-2-(2-(2,2,2-trifluoroethoxy)ethoxy)-7,9-dihydro-8H-purin-8-one], the figures for the EC50 on hTLR8 and on hTLR7 were over 100 µM and 0.001 to 1 µM, respectively.

On to `COC(C)CCOc1ncc2[nH]c(=O)n(Cc3ccc(CN4CCCC4)cc3)c2n1` (centres unmarked) [Example 49, 9-(4-(pyrrolidin-1-ylmethyl)benzyl)-2-(3-methoxybutoxy)-7,9-dihydro-8H-purin-8-one], for which the EC50 was over 100 µM on hTLR8 and 0.001 to 1 µM at hTLR7.

Take `O=c1[nH]c2cnc(OCCCOC(F)(F)F)nc2n1Cc1ccc(CN2CCCC2)cc1` [Example 50, 9-(4-(pyrrolidin-1-ylmethyl)benzyl)-2-(3-(trifluoromethoxy)propoxy)-7,9-dihydro-8H-purin-8-one]: the EC50 at hTLR8 is over 100 µM; on hTLR7, 0.001 to 1 µM.

As to `COCCOc1ncc2[nH]c(=O)n(Cc3ccc(CN4CC5CC(C5)C4)cc3)c2n1` [Example 52, 9-(4-((3-azabicyclo[3.1.1]heptan-3-yl)methyl)benzyl)-2-(2-methoxyethoxy)-7,9-dihydro-8H-purin-8-one], the concentration giving a half-maximal response (EC50) on hTLR8 is over 100 µM; at hTLR7, 1 to 10 µM.

On to `COCCOc1ncc2[nH]c(=O)n(Cc3ccc(CN4C5CCC4CC5)cc3)c2n1` [Example 53, 9-(4-((7-azabicyclo[2.2.1]heptan-7-yl)methyl)benzyl)-2-(2-methoxyethoxy)-7,9-dihydro-8H-purin-8-one], for which the results for the 50% effective concentration (EC50) at hTLR8 and at hTLR7 were over 100 µM and 1 to 10 µM, respectively.

Turning to `COCCOc1ncc2[nH]c(=O)n(Cc3ccc(CN4CCC(F)(F)C4)cc3)c2n1` [Example 54, 9-(4-((3,3-difluoropyrrolidin-1-yl)methyl)benzyl)-2-(2-methoxyethoxy)-7,9-dihydro-8H-purin-8-one], the EC50 on hTLR8 is over 100 µM; on hTLR7 it was 10 to 100 µM.

For `O=c1[nH]c2cnc(OCCOC(F)(F)F)nc2n1Cc1ccc(CN2CC=CC2)cc1` [Example 55], the EC50 was over 100 µM at hTLR8 and 0.001 to 1 µM at hTLR7.

As to `COCCOc1ncc2c(n1)n(Cc1ccc(CN3CCCC3)cc1)c(=O)n2C` [Example 56, 9-(4-(pyrrolidin-1-ylmethyl)benzyl)-7-methyl-2-(2-methoxyethoxy)-7,9-dihydro-8H-purin-8-one], the 50% effective concentration (EC50) at hTLR8 and at hTLR7 was over 100 µM in each case.

Regarding `CCCn1c(=O)n(Cc2ccc(CN3CCCC3)cc2)c2nc(OCCOC)ncc21` [Example 57, 9-(4-(pyrrolidin-1-ylmethyl)benzyl)-7-propyl-2-(2-methoxyethoxy)-7,9-dihydro-8H-purin-8-one], the EC50 on hTLR8 and at hTLR7 was over 100 µM throughout.

For the compound `COCCOc1nc(C)c2[nH]c(=O)n(Cc3ccc(CN4CCCC4)cc3)c2n1` [Example 58, 9-(4-(pyrrolidin-1-ylmethyl)benzyl)-6-methyl-2-(2-methoxyethoxy)-7,9-dihydro-8H-purin-8-one], the concentration giving a half-maximal response (EC50) at hTLR8 and at hTLR7 was over 100 µM throughout.

For the compound `COCCOc1ncc2nc(C)n(Cc3ccc(CN4CCCC4)cc3)c2n1` [Example 59, 2-(2-methoxyethoxy)-8-methyl-9-(4-(pyrrolidin-1-ylmethyl)benzyl)-9H-purine], the EC50 at hTLR8 and at hTLR7 was over 100 µM in each case.

Turning to `COCCOc1ncc2[nH]c(=S)n(Cc3ccc(CN4CCCC4)cc3)c2n1` [Example 60, 2-(2-methoxyethoxy)-9-(4-(pyrrolidin-1-ylmethyl)benzyl)-7,9-dihydro-8H-purin-8-thione], the EC50 at hTLR8 and on hTLR7 was over 100 µM in each case.
